Results as given in article PMC8537180, “Discovery of a Kojibiose Hydrolase by Analysis of Specificity-Determining Correlated Positions in Glycoside Hydrolase Family 65” (Molecules, 2021).
Like-named read-outs stand apart in the source and are kept apart here.

Key:
[1] = molecular target: T1, CaGP (Caldithrix abyssi, UniProt H1XSN4); assay: phosphomolybdate assay and HPAEC-PAD, synthesis direction; format: biochemical; settings: 50 mM MOPS pH 7.0
T1 construct: gene Calab_2975; codon-optimized gene in pET21a, C-terminal His6-tag, expressed in E. coli BL21(DE3) agp-, Ni-NTA purified; GH65 subgroup 22

[2] = molecular target: T2, TbGP (Thermobispora bispora, UniProt D6Y6U5); assay: as above; format: biochemical; settings: 50 mM MOPS pH 7.0, trehalose formed
T2 construct: gene Tbis_2887; codon-optimized gene in pET21a, C-terminal His6-tag, expressed in E. coli BL21(DE3) agp-, Ni-NTA purified; GH65 subgroup 1

[3] = molecular target: T3, MiGP (Mageeibacillus indolicus, UniProt D3R1R5); assay: as above; format: biochemical; settings: acceptor, minor activity; donor 10 mM βGlc1P; 50 mM MOPS pH 7.0
T3 construct: gene HMPREF0868_0806; codon-optimized gene in pET21a, C-terminal His6-tag, expressed in E. coli BL21(DE3) agp-, Ni-NTA purified; GH65 subgroup 6
T3 sequence (D3R1R5 1-712): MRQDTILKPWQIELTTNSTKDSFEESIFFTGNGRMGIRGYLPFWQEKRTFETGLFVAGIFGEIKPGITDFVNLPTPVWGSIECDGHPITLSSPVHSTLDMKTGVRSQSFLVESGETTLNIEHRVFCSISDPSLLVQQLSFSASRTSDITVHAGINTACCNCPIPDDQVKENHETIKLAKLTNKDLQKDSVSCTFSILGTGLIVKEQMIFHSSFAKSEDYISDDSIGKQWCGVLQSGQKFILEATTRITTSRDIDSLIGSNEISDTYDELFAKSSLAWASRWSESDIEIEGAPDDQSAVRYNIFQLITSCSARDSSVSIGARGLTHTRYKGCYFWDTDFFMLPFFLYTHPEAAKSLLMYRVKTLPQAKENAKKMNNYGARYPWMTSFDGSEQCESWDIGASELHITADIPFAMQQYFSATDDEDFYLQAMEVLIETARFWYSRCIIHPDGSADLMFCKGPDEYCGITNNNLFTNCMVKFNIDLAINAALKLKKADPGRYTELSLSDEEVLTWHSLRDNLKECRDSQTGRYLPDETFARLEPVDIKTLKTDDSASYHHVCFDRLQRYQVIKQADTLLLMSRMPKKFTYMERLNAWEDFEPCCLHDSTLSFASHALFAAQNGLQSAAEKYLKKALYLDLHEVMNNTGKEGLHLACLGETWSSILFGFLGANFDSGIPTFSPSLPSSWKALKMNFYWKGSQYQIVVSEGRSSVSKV

[4] = molecular target: T4, HoGP (Halothermothrix orenii, UniProt B8D049); settings: 50 mM MOPS pH 7.0
T4 construct: gene Hore_00420

[5] = molecular target: T5, ChGP (Caldicellulosiruptor hydrothermalis, UniProt E4Q9G1); assay: phosphomolybdate assay and HPAEC-PAD, synthesis direction; format: biochemical; settings: acceptor; donor βGlc1P; 50 mM MOPS pH 7.0
T5 construct: gene Calhy_0070; codon-optimized gene in pET21a, C-terminal His6-tag, expressed in E. coli BL21(DE3) agp-, Ni-NTA purified; GH65 subgroup 4
T5 sequence (E4Q9G1 entry or part of it): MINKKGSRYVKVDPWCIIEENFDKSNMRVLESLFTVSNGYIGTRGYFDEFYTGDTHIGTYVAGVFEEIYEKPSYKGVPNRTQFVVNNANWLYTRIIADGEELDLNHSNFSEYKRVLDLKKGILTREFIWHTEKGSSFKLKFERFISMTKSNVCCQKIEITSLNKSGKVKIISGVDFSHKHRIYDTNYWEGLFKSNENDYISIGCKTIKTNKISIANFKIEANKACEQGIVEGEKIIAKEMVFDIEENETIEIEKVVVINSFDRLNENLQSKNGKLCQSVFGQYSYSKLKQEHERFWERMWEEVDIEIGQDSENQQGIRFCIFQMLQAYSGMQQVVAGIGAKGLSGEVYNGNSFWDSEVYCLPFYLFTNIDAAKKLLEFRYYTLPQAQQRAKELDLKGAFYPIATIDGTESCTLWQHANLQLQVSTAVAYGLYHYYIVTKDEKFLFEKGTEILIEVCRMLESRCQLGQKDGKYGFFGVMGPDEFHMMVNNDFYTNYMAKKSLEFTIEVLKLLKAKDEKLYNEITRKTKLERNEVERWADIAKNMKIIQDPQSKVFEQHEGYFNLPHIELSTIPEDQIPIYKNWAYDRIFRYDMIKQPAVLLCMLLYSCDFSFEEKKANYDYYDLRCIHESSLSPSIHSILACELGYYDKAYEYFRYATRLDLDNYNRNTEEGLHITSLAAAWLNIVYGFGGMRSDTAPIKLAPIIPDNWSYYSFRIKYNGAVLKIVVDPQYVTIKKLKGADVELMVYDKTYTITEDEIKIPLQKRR

T4 sequence (B8D049 whole entry): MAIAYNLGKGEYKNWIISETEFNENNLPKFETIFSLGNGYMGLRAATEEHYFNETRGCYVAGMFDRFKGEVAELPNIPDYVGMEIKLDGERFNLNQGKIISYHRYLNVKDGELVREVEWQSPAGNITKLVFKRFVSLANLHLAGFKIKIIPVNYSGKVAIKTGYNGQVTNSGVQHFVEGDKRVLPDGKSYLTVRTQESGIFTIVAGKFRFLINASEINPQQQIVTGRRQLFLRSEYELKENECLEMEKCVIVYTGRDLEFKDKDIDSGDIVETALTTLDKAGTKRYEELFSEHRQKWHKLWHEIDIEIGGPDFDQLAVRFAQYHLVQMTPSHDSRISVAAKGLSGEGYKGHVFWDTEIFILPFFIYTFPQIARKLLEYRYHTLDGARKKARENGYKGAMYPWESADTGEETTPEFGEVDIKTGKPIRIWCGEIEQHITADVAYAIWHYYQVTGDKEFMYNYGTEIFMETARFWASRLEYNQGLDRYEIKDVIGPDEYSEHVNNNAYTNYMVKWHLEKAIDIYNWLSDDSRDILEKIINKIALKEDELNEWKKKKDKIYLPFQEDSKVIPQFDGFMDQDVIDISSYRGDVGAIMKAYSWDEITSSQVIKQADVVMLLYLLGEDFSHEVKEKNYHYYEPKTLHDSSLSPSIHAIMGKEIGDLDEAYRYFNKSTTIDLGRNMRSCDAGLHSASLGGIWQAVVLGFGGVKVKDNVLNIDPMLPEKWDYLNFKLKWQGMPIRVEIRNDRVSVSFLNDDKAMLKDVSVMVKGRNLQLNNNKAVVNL
T2 sequence (D6Y6U5 entry or part of it): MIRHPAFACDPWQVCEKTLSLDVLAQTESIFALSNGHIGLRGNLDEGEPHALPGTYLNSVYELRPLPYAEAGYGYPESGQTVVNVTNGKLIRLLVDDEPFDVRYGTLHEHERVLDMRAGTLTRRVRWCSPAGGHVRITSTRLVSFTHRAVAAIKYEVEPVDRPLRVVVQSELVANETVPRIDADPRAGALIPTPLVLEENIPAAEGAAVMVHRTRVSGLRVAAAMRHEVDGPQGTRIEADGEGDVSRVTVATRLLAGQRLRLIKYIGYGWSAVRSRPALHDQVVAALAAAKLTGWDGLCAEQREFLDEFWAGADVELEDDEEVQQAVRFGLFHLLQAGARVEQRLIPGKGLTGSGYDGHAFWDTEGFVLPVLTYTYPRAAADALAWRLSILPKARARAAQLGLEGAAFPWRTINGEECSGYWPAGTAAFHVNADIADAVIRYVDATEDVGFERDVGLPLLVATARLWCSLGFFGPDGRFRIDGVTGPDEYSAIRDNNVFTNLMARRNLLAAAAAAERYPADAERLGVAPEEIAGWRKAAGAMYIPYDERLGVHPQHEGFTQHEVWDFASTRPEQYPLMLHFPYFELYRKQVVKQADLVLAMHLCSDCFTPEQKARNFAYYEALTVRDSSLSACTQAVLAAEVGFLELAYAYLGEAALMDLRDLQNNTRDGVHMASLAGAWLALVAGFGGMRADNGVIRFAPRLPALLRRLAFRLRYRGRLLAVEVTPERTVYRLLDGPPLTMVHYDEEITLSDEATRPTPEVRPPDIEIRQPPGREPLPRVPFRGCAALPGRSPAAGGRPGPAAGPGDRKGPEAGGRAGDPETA
T1 sequence (H1XSN4 entry or part of it): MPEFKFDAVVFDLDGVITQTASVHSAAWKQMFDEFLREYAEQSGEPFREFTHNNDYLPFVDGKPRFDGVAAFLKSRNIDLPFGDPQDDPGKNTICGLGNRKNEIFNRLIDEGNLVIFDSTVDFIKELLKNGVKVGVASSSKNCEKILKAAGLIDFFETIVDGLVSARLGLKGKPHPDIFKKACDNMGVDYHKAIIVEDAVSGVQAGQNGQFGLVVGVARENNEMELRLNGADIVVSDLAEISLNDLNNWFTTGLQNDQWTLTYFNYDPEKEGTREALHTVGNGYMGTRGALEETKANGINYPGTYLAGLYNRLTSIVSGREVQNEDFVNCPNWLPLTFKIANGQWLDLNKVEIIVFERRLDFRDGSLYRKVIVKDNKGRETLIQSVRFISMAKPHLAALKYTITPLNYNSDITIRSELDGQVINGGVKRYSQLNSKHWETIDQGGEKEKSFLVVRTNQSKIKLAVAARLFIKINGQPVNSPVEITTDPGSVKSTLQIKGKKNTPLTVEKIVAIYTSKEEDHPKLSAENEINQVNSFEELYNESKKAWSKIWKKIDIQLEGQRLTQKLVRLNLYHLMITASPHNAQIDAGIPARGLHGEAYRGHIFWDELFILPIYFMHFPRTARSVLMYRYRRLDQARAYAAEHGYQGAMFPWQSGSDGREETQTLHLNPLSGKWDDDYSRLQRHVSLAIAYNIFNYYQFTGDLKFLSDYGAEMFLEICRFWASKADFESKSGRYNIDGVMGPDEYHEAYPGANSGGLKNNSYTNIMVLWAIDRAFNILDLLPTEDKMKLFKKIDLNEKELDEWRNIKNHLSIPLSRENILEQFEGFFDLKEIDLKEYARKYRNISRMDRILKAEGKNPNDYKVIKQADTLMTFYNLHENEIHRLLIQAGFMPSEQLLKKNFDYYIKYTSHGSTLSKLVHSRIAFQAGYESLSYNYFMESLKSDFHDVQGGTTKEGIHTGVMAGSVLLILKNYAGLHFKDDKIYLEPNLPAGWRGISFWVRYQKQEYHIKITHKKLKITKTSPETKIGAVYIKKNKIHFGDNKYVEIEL

## O=P(O)(O)OC[C@H]1OC(O)[C@H](O)[C@@H](O)[C@@H]1O (some centres unmarked) [glucose 6-phosphate]
[1]; donor βGlc1P
  phosphomolybdate assay and HPAEC-PAD, synthesis direction: trehalose 6-phosphate was produced from βGlc1P and glucose 6-phosphate

## OC[C@H]1OC(O)[C@H](O)[C@@H](O)[C@@H]1O (some centres unmarked) [glucose]
[2]; donor βGlc1P
  phosphomolybdate assay and HPAEC-PAD, synthesis direction: In a reaction mixture of glucose and βGlc1P, TbGP produced trehalose
[3]
  phosphomolybdate assay and HPAEC-PAD, synthesis direction: Apart from minor activity on glucose and galactose, MiGP prefers α-glucosidic disaccharides

## OC[C@H]1O[C@H](O[C@H]2C(O)O[C@H](CO)[C@@H](O)[C@@H]2O)[C@H](O)[C@@H](O)[C@@H]1O (some centres unmarked) [kojibiose]
[4]; phosphorolysis and acceptor with βGlc1P
  phosphomolybdate assay and HPAEC-PAD, synthesis direction: both breaking kojibiose down to glucose and βGlc1P and using it as acceptor

## OC[C@H]1O[C@H](O[C@H]2[C@H](O)[C@@H](CO)OC(O)[C@@H]2O)[C@H](O)[C@@H](O)[C@@H]1O (some centres unmarked) [nigerose]
[5]
  phosphomolybdate assay and HPAEC-PAD, synthesis direction: ChGP elongated nigerose, and other disaccharides, to form α-1,3-oligoglucans

## O=P(O)(O)O[C@@H]1O[C@H](CO)[C@@H](O)[C@H](O)[C@H]1O [βGlc1P]
[2]; acceptor glucose
  phosphomolybdate assay and HPAEC-PAD, synthesis direction: In a reaction mixture of glucose and βGlc1P, TbGP produced trehalose
[4]; acceptor kojibiose
  phosphomolybdate assay and HPAEC-PAD, synthesis direction: In a reaction mixture that contained both kojibiose and βGlc1P, phosphorolytic and synthetic reactions co-occur
[1]; acceptor glucose 6-phosphate
  phosphomolybdate assay and HPAEC-PAD, synthesis direction: trehalose 6-phosphate was produced from βGlc1P and glucose 6-phosphate
